In this assay the target is T1, MD-2 (Homo sapiens, UniProt Q9Y6Y9).
T1 construct: gene LY96; Recombinant human MD-2 (R&D Systems #1787-MD-050/CF), covalently immobilized
T1 sequence (Q9Y6Y9 19-160): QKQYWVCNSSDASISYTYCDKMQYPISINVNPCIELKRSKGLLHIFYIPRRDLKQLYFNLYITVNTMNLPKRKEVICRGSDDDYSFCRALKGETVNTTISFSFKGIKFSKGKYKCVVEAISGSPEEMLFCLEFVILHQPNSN
Description: SPR competition assay: inhibition of Lipid A binding to immobilized hMD-2.

With `CC(=O)[C@H]1CC[C@H]2[C@@H]3CC[C@H]4C[C@H](O)CC[C@]4(C)[C@H]3CC[C@]12C` [3α,5α-THP, (3α,5α)-3-hydroxypregnan-20-one], the inhibition constant Ki (commonly the dissociation constant of the complex between target and ligand, obtained from inhibition or displacement) was 4.5 ± 1.7 nM.

Values taken from publication PMC11591752, “Novel Inhibitory Actions of Neuroactive Steroid [3α,5α]-3-Hydroxypregnan-20-One on Toll-like Receptor 4-Dependent Neuroimmune Signaling” (Biomolecules, 2024).
